Measurements reported in patent publication US20020052323A1, “Quinoline-(C=O)-(multiple amino acids)-leaving group compounds for pharmaceutical compositions and reagents” (priority 2000, published 2002).
Several values for one entry are separate records, joined by “and”; a condition that tells them apart may be missing. Equal entries are not always repeated. Where two headings read alike, the source gives them in different places. One block for each compound: values may come before it.

What was measured:
[1] = target: T1, caspase 3 (Homo sapiens, UniProt P42574); test: Caspase inhibition assay, AcDEVD-AFC substrate; format: biochemical
T1 sequence (P42574 29-175 limits assumed): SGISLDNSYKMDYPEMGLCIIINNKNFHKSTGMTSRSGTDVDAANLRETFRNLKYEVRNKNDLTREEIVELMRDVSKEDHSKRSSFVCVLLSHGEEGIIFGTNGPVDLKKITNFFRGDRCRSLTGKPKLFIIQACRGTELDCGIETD
T1 sequence (P42574 176-277 limits assumed): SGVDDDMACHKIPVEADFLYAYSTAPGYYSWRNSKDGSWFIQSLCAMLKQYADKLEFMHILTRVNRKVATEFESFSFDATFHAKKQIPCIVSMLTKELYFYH
Description: (§1) The determination of the IC50/μm was performed according to Gary Johnson, 9401 James Avenue, Suite No. 155, Bloomington, Minn. 55431.
(§2) Caspase Inhibition Assay:—Caspases are diluted in caspase buffer, 0.1 M HEPES, 10% sucrose 0.1% CHAPS and 10 mM DTT, pH 7.5. Caspases 1, 3, and 8 are used at a concentration of 144 U/well and caspase 9 is used at 4.8 U/well in a 96 well fluorometric plate.
(§3) Inhibitors are initially dissolved in DMSO at 10 mg/ml and further dilutions can be prepared in caspase buffer. The inhibitors are generally tested at concentrations ranging from 50 uM to 0.005 uM. These are usually prepared as 2 fold or 2.5 fold decreasing dilutions. The enzyme approximately 144 U in 120 ul caspase buffer is added to 380 ul caspase buffer containing the appropriate concentration on the inhibitor and incubated on ice for 15 min. The reactants 200 ul are then added to a black fluorimetric plate and incubated in the fluorometer at 37° C. for 30 min.
(§4) During the incubation period appropriate coumarin substrates are prepared by dilution in DMSO and caspase buffer to provide a 0.417 mM working stock. AcYVAD-AFC is used for caspase 1, AcDEVD-AFC for caspase 3. AcIETD-AFC for caspase 8 and Ac-LEHD-AFC for capsase 9. Twenty five microliters of the stock solution are added to 200 ul of the caspase and inhibitor test solutions to give a final substrate concentration of 0.046 mM.
(§5) The fluorometer is set to 400 nm excitation and 505 nm emission. The enzyme-inhibitor-substrate is allowed to incubate at for an additional twenty min. and the response is read as fluorescence units vs inhibitor concentration. The responses are plotted as percent of the maximum response (response in the absence of inhibitor) for each concentration of the inhibitor. The inhibitory activity for each inhibitor is described as the concentration of inhibitor that produces a 50% inhibition of the maximum response (IC50).

[2] = target: T2, caspase 9 (Homo sapiens, UniProt P55211); test: Caspase inhibition assay, Ac-LEHD-AFC substrate; format: biochemical
T2 sequence (P55211 1-315 limits assumed): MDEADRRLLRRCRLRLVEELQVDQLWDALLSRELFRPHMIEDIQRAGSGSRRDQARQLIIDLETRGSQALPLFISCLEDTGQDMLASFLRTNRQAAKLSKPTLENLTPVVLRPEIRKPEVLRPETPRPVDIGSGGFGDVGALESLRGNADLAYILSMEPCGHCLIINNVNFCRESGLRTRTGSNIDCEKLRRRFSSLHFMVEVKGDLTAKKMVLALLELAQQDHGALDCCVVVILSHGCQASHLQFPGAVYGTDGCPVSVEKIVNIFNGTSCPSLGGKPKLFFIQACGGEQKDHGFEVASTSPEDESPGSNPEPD
T2 sequence (P55211 331-416 limits assumed): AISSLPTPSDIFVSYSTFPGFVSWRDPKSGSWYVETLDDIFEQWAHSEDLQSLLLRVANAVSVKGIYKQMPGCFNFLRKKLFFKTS
Description: as §1, §2, §3, §4, §5

[3] = target: caspase 8 (Homo sapiens, UniProt Q14790); test: Caspase inhibition assay, AcIETD-AFC substrate; format: biochemical
Sequence of caspase 8 (Q14790 217-374 limits assumed, species assumed): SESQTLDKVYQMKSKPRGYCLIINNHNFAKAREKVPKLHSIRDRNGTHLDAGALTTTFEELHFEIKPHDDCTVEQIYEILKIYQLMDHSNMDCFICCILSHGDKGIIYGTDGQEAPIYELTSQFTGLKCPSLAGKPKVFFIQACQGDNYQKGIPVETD
Sequence of caspase 8 (Q14790 385-479 limits assumed, species assumed): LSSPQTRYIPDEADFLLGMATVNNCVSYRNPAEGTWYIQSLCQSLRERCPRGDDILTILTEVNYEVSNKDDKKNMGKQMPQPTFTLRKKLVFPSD
Description: as §1, §2, §3
During the incubation period appropriate coumarin substrates are prepared by dilution in DMSO and caspase buffer to provide a 0.417 mM working stock. AcYVAD-AFC is used for caspase 1, AcDEVD-AFC for caspase 3. […]
The fluorometer is set to 400 nm excitation and 505 nm emission. The enzyme-inhibitor-substrate is allowed to incubate at for an additional twenty min. and the response is read as fluorescence units vs inhibitor concentration. […]

[4] = target: T3, caspase 1 (Homo sapiens, UniProt P29466); test: Caspase inhibition assay, AcYVAD-AFC substrate; format: biochemical
T3 sequence (P29466 120-297 limits assumed): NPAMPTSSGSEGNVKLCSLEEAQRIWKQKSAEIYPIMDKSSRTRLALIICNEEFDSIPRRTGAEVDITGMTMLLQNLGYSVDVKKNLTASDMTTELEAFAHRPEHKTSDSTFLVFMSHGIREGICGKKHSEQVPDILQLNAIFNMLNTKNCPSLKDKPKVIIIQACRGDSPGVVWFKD
T3 sequence (P29466 317-404 limits assumed): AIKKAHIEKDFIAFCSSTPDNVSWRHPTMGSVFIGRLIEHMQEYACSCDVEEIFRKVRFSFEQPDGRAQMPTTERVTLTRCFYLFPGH
Description: as §1, §2, §3, §4, §5

[5] = from figure, antilog of log concentration, read-out: IC50 caspase 3
[6] = from figure, antilog of log concentration, read-out: IC50 caspase 1
[7] = esterase treated inhibitor, read-out: IC50 caspase 1

IC50 ([1]; Table 5, read-out: CASP-3 IC50): 1.24 µM | IC50 [1, 5]: ~1.23 µM and ~0.98 µM | IC50 ([2]; from figure, antilog of log concentration): ~5.44 µM | IC50 ([3]; Table 5, read-out: CASP-8 IC50): 5.88 µM | IC50 ([3]; from figure, read-out: IC50 caspase 8): ~5.82 µM | IC50 ([4]; Table 5, read-out: CASP-1 IC50): 1.5 µM | IC50 [4, 6]: ~1.46 µM
Compound: COC(=O)CC(NC(=O)C(NC(=O)c1ccc2ccccc2n1)C(C)C)C(=O)COc1cc(N)ccc1C(=O)O (stereo not drawn) [Q-VD(OMe)-ASA, Quinoline-(2-Carbonyl)-Val-Asp(OMe)-α-(2-oxy-Amino Salicylic Acid)]

IC50 ([1]; Table 5, read-out: CASP-3 IC50): < 25 µM
Compound: COC(=O)CC(NC(=O)C(NC(=O)c1ccc2ccccc2n1)C(C)C)C(=O)COc1ccc(CCNC(=O)OC(C)(C)C)cc1O (stereo not drawn) [Q-VD(OMe)-DOPA-BOC]

IC50 ([1]; Table 5, read-out: CASP-3 IC50): 0.5 µM | IC50 ([4]; Table 5, read-out: CASP-1 IC50): 1.43 µM | IC50 [4, 6]: ~1.43 µM
Compound: COC(=O)CC(NC(=O)C(NC(=O)c1ccc2ccccc2n1)C(C)C)C(=O)COc1ccccc1C(=O)O (stereo not drawn) [Q-VD(OMe)-SA, Quinoline-(2-Carbonyl)-Val-Asp(OMe)—CH—O-Salicylic Acid]

IC50 ([1]; Table 5, read-out: CASP-3 IC50): 0.25 µM
Compound: COC(=O)C[C@H](NC(=O)[C@@H](NC(=O)c1ccc2ccccc2n1)C(C)C)C(=O)COC1=C(c2ccccc2)C(=O)OC1 [Q-VD(OMe)-Tetronic Acid, Quinoline-(2-Carbonyl)-Val-Asp(OMe)—CH2-2-Phenyltetronic Acid]

Compound: COC(=O)C[C@H](NC(=O)[C@H](C)NC(=O)[C@@H](NC(=O)c1ccc2ccccc2n1)C(C)C)C(=O)CF [QVAD(OMe)FMK, Quinoline-(C═O)Val-Ala-Asp(OMe)-Fluoromethyl Ketone]
concentration vs. >90% cell survival: 100 µM

IC50 ([1]; esterase treated inhibitor, read-out: IC50 caspase 3): ~0.031 µM | IC50 ([1]; non-esterase treated inhibitor, read-out: IC50 caspase 3): 0.045 µM | IC50 ([2]; esterase treated inhibitor): ~0.07 µM | IC50 ([2]; non-esterase treated inhibitor): ~0.065 µM | IC50 [4, 7]: ~0.0398 µM
Compound: COC(=O)CC(NC(=O)C(CC(C)C)NC(=O)c1ccc2ccccc2n1)C(=O)CF [quinoline-(2-carbonyl)-L-D(OMe)—CH2-FMK]

IC50 [1, 5]: ~0.05 µM | IC50 [4, 6]: ~0.548 µM
Compound: CC(C)C[C@H](NC(=O)c1ccc2ccccc2n1)C(=O)N[C@@H](CC(=O)O)C(=O)COc1ccccc1 [quinoline-(2-carbonyl)-L-D-CH2—OPh]

IC50 ([2]; esterase treated inhibitor): 0.025 µM | IC50 ([2]; non-esterase treated inhibitor): ~0.029 µM | IC50 [4, 7]: ~0.068 µM
Compound: COC(=O)CC(NC(=O)C(NC(=O)c1ccc2ccccc2n1)C(C)C)C(=O)CF [quinoline-(2-carbonyl)-V-D(OMe)—CH2-FMK, Quinoline-(2-Carbonyl)-V-D-(OMe)-α-CH2F (the Fluoromethyl Ketone)]

IC50 ([1]; Table 5, read-out: CASP-3 IC50): 2 µM
Compound: Quinoline-(2-Carbonyl)-Val-Asp(OMe)-α-(3-oxy-Dopamine) [Q-VD(OMe)-DOPA.TFA]
